Entries after “also recorded” stand apart in the source; their conditions may differ. Where a name gives a salt, the structure may show the parent alone.
Test system: LPS stimulated human PBMCs
Experiment: In vitro potency of steroid payloads in LPS stimulated human PBMCs (IL-1β, IL-6 ELISA)
Format: cell-based
Details: for IL-1β and IL-6 production / IL-1β production / potency relative to the other compounds of the experiment: 1 ng/mL LPS, 24 hr; for impact of halogenation of the steroid ring on potency: compared with INX-SM-3
[1] = Experiment 1, 1000-1 nM, n=1 donor
[2] = Experiment 2, 1000-1 nM, n=1 donor
[3] = Experiment 6, 1000-0.16 nM, n=1
[4] = Experiment 3, 1000-0.2 nM, n=2 donors
[5] = Experiment 5, 1000-0.5 nM, n=1 donor

C[C@]12C=CC(=O)C=C1CC[C@@H]1[C@@H]2[C@@H](O)C[C@@]2(C)[C@H]1C[C@H]1O[C@@H](c3ccc(Cc4cnc(N)s4)cc3)O[C@]12C(=O)CO [INX-SM-1, (6aR,6bS,7S,8aS,8bS,10R,11aR,12aS,12bS)-10-(4-((2-aminothiazol-5-yl)methyl)phenyl)-7-hydroxy-8b-(2-hydroxyacetyl)-6a,8a-dimethyl-1,2,6a,6b,7,8,8a,8b,11a,12,12a,12b-dodecahydro-4H-naphtho[2′,1′:4,5]indeno[1,2-d][1,3]dioxol-4-one AcOH salt]
steroid potency as free payloads in LPS-activated human PBMCS (conclusions): varying degrees of dose dependent steroid potency | IL-1β and IL-6 production [1]: inhibit both IL-1β and IL-6 production | IL-1β production [2]: show inhibition in IL-1β production

C[C@]12C=CC(=O)C=C1CC[C@@H]1[C@@H]2[C@@H](O)C[C@@]2(C)[C@H]1C[C@H]1O[C@@H](c3ccc(Cc4csc(N)n4)cc3)O[C@]12C(=O)CO [INX-SM-2, (6aR,6bS,7S,8aS,8bS,10R,11aR,12aS,12bS)-10-(4-((2-aminothiazol-4-yl)methyl)phenyl)-7-hydroxy-8b-(2-hydroxyacetyl)-6a,8a-dimethyl-1,2,6a,6b,7,8,8a,8b,11a,12,12a,12b-dodecahydro-4H-naphtho[2′,1′:4,5]indeno[1,2-d][1,3]dioxol-4-one AcOH salt]
steroid potency as free payloads in LPS-activated human PBMCS (conclusions): varying degrees of dose dependent steroid potency | IL-1β production [3]: dose-dependent inhibition

C[C@]12C=CC(=O)C=C1CC[C@@H]1[C@@H]2[C@@H](O)C[C@@]2(C)[C@H]1C[C@H]1O[C@@H](C34CC(Cc5cccc(N)c5)(C3)C4)O[C@]12C(=O)CO [INX-SM-4, (6aR,6bS,7S,8aS,8bS,10R,11aR,12aS,12bS)-10-(3-(3-aminobenzyl)bicyclo[1.1.1]pentan-1-yl)-7-hydroxy-8b-(2-hydroxyacetyl)-6a,8a-dimethyl-1,2,6a,6b,7,8,8a,8b,11a,12,12a,12b-dodecahydro-4H-naphtho[2′,1′:4,5]indeno[1,2-d][1,3]dioxol-4-one]
steroid potency as free payloads in LPS-activated human PBMCS (conclusions): varying degrees of dose dependent steroid potency | IL-1β and IL-6 production [1]: inhibit both IL-1β and IL-6 production | IL-1β production [2]: show inhibition in IL-1β production

C[C@]12C=CC(=O)C=C1CC[C@@H]1[C@@H]2[C@@H](O)C[C@@]2(C)[C@H]1C[C@H]1O[C@@H](c3cnc(Cc4cccc(N)c4)s3)O[C@]12C(=O)CO [INX-SM-6, (6aR,6bS,7S, 8aS,8bS,10R,11aR,12aS,12bS)-10-(2-(3-aminobenzyl)thiazol-5-yl)-7-hydroxy-8b-(2-hydroxyacetyl)-6a,8a-dimethyl-1,2,6a,6b,7,8,8a,8b, 11a,12,12a,12b-dodecahydro-4H-naphtho[2′,1′:4,5]indeno[1,2-d][1,3]dioxol-4-one]
steroid potency as free payloads in LPS-activated human PBMCS (conclusions): varying degrees of dose dependent steroid potency | IL-1β production [2]: show inhibition in IL-1β production

C[C@]12C=CC(=O)C=C1CC[C@@H]1[C@@H]2[C@@H](O)C[C@@]2(C)[C@H]1C[C@H]1O[C@@H](c3ccc(Cc4ncc(N)s4)cc3)O[C@]12C(=O)CO [INX-SM-7, (6aR,6bS,7S,8aS,8bS,10R,11aR,12aS,12bS)-10-(4-((5-aminothiazol-2-yl)methyl)phenyl)-7-hydroxy-8b-(2-hydroxyacetyl)-6a,8a-dimethyl-1,2,6a,6b,7,8,8a,8b,11a,12,12a,12b-dodecahydro-4H-naphtho[2′,1′:4,5]indeno[1,2-d][1,3]dioxol-4-one]
steroid potency as free payloads in LPS-activated human PBMCS (conclusions): varying degrees of dose dependent steroid potency | IL-1β production [3]: dose-dependent inhibition

C[C@@]12CCC3=CC(=O)C=C[C@]3(C)[C@H]1[C@@H](O)C[C@@]1(C)[C@H]2C[C@H]2O[C@@H](c3ccc(CC45C6C7C4C4C5C6C74N)cc3)O[C@]21C(=O)CO (stereo partly drawn) [INX-SM-9, (6aR,6bS,7S,8aS,8bS,10R,11aR,12aS,12bS)-10-(4-((4-aminocuban-1-yl)methyl)phenyl)-7-hydroxy-8b-(2-hydroxyacetyl)-6a,8a-dimethyl-1,2,6a,6b,7,8,8a,8b,11a,12,12a,12b-dodecahydro-4H-naphtho[2′,1′:4,5]indeno[1,2-d][1,3]dioxol-4-one]
steroid potency as free payloads in LPS-activated human PBMCS (conclusions): varying degrees of dose dependent steroid potency | IL-1β production [4]: dose dependent inhibition

C[C@]12C=CC(=O)C=C1CC[C@@H]1[C@@H]2[C@@H](O)C[C@@]2(C)[C@H]1C[C@H]1O[C@@H](c3ccc(CC45CCC(N)(CC4)CC5)cc3)O[C@]12C(=O)CO [INX-SM-10, (6aR,6bS,7S, 8aS,8bS,11aR,12aS,12bS)-10-(4-((4-aminobicyclo [2.2.2]octan-1-yl)methyl)phenyl)-7-hydroxy-8b-(2-hydroxyacetyl)-6a,8a-dimethyl-1,2,6a,6b,7,8,8a,8b,11a,12,12a,12b-dodecahydro-4H-naphtho[2′,1′:4,5]indeno[1,2-d][1,3]dioxol-4-one]
steroid potency as free payloads in LPS-activated human PBMCS (conclusions): varying degrees of dose dependent steroid potency | IL-1β and IL-6 production [5]: dose dependent inhibition; also recorded: robust inhibition

C[C@]12C=CC(=O)C=C1CC[C@H]1[C@@H]3C[C@H]4O[C@@H](c5ccc(CC67CC(N)(C6)C7)cc5)O[C@@]4(C(=O)CO)[C@@]3(C)C[C@H](O)[C@@]12F [INX-SM-13, (6aS,6bR,7S,8aS,8bS,10R,11aR,12aS,12bS)-10-(4-((3-aminobicyclo[1.1.1]pentan-1-yl)methyl)phenyl)-6b-fluoro-7-hydroxy-8b-(2-hydroxyacetyl)-6a,8a-dimethyl-1,2,6a,6b,7,8,8a,8b,11a,12,12a,12b-dodecahydro-4H-naphtho[2′,1′:4,5]indeno[1,2-d][1,3]dioxol-4-one]
steroid potency as free payloads in LPS-activated human PBMCS (conclusions): varying degrees of dose dependent steroid potency | impact of halogenation of the steroid ring on potency (Experiment 6, 1000-0.16 nM): did not lead to increased potency

C[C@]12C=CC(=O)C=C1[C@@H](F)C[C@H]1[C@@H]3C[C@H]4O[C@@H](c5ccc(CC67CC(N)(C6)C7)cc5)O[C@@]4(C(=O)CO)[C@@]3(C)C[C@H](O)[C@@]12F [INX-SM-24, (2S,6aS,6bR,7S,8aS,8bS,10R,11aR,12aS,12bS)-10-(4-((3-aminobicyclo[1.1.1]pentan-1-yl)methyl)phenyl)-2,6b-difluoro-7-hydroxy-8b-(2-hydroxyacetyl)-6a,8a-dimethyl-1,2,6a,6b,7,8,8a,8b,11a,12,12a,12b-dodecahydro-4H-naphtho[2′,1′:4,5]indeno[1,2-d][1,3]dioxol-4-one]
steroid potency as free payloads in LPS-activated human PBMCS (conclusions): varying degrees of dose dependent steroid potency | impact of halogenation of the steroid ring on potency (Experiment 6, 1000-0.16 nM): increased potency over the non-fluorinated INX-SM-3

C[C@]12C=CC(=O)C=C1CC[C@@H]1[C@@H]2[C@@H](O)C[C@@]2(C)[C@H]1C[C@H]1O[C@@H](c3ccc(CC4COC5(CNC5)C4)cc3)O[C@]12C(=O)CO (stereo partly drawn) [INX-SM-31, (6aR,6bS,7S,8aS,8bS,11aR,12aS,12bS)-10-(4-((5-oxa-2-azaspiro[3.4]octan-7-yl)methyl)phenyl)-7-hydroxy-8b-(2-hydroxyacetyl)-6a,8a-dimethyl-1,2,6a,6b,7,8,8a,8b,11a,12,12a,12b-dodecahydro-4H-naphtho[2′,1′:4,5]indeno[1,2-d][1,3]dioxol-4-one]
steroid potency as free payloads in LPS-activated human PBMCS (conclusions): varying degrees of dose dependent steroid potency; also recorded: lowest potency among the R stereoisomers | potency relative to the other compounds of the experiment: least potent compound among these compounds tested | IL-1β production [4]: dose dependent inhibition

C[C@@]12CCC3=CC(=O)C=C[C@]3(C)[C@H]1[C@@H](O)C[C@@]1(C)[C@H]2C[C@H]2O[C@@H](c3ccc(CC4CC5(CC(N)C5)C4)cc3)O[C@]21C(=O)CO (stereo partly drawn) [INX-SM-32, (6aR,6bS,7S,8aS,8bS,11aR,12aS,12bS)-10-(4-((6-aminospiro[3.3]heptan-2-yl)methyl)phenyl)-7-hydroxy-8b-(2-hydroxyacetyl)-6a,8a-dimethyl-1,2,6a,6b,7,8,8a,8b,11a,12,12a,12b-dodecahydro-4H-naphtho[2′,1′:4,5]indeno[1,2-d][1,3]dioxol-4-one]
steroid potency as free payloads in LPS-activated human PBMCS (conclusions): varying degrees of dose dependent steroid potency | IL-1β and IL-6 production (Experiment 4, 500-1 nM, n=2): dose dependent inhibition in IL-1β and IL-6 production

C[C@]12C=CC(=O)C=C1CC[C@@H]1[C@@H]2[C@@H](O)C[C@@]2(C)[C@H]1C[C@H]1O[C@@H](c3ccc(CC4(N)COC4)cc3)O[C@]12C(=O)CO [INX-SM-33, (6aR,6bS,7S,8aS,8bS,10R,11aR,12aS,12bS)-10-(4-((3-aminooxetan-3-yl)methyl)phenyl)-7-hydroxy-8b-(2-hydroxyacetyl)-6a,8a-dimethyl-1,2,6a,6b,7,8,8a,8b,11a,12,12a,12b-dodeca hydro-4H-naphtho[2′,1′:4,5]indeno[1,2-d][1,3]dioxol-4-one]
steroid potency as free payloads in LPS-activated human PBMCS (conclusions): varying degrees of dose dependent steroid potency; also recorded: lowest potency among the R stereoisomers | potency relative to the other compounds of the experiment: least potent compound among these compounds tested | IL-1β and IL-6 production [5]: dose dependent inhibition; also recorded: modest inhibition

C[C@]12C=CC(=O)C=C1CC[C@@H]1[C@@H]2[C@@H](O)C[C@@]2(C)[C@H]1C[C@H]1OC(c3ccc(CC4(N)CC(F)(F)C4)cc3)O[C@]12C(=O)CO (stereo partly drawn) [INX-SM-35, (6aR,6bS,7S,8aS,8bS,10R,11aR,12aS,12bS)-10-(4-((1-amino-3,3-difluorocyclobutyl)methyl)phenyl)-7-hydroxy-8b-(2-hydroxyacetyl)-6a,8a-dimethyl 1,2,6a,6b,7,8,8a,8b,11a,12,12a,12b-dodecahydro-4H-naphtho[2′,1′:4,5]indeno[1,2-d][1,3]dioxol-4-one]
steroid potency as free payloads in LPS-activated human PBMCS (conclusions): varying degrees of dose dependent steroid potency | IL-1β production [4]: dose dependent inhibition

— US20230310634A1, “ANTI-HUMAN VISTA ANTIBODIES AND USE THEREOF” (IMMUNEXT, INC., priority 2020, published 2023)
